Assay results published in patent publication US8962578B2 (priority 2003, dated 2015).
Like-named read-outs stand apart in the source and are kept apart here.

Key:
Format in all cases: in vivo
Pyricularia oryzae = settings: rice, protective, evaluation 4 days after inoculation
[1] = test system: Erysiphe graminis f.sp. hordei; assay: Erysiphe test (barley)/protective; settings: protective, application rate 50 g/ha, evaluation 7 days after inoculation
Method: Erysiphe test (barley)/protective
Solvent: 50 parts by weight of dimethylformamide
Emulsifier: 1 part by weight of alkylaryl polyglycol ether
To produce a suitable preparation of active compound, 1 part by weight of active compound or a combination of active compound is mixed with the stated amounts of solvent and emulsifier, and the concentrate is diluted with water to the desired concentration, or a commercial formulation of active compound or active compound combination is diluted with water to the desired concentration.
To test for protective activity, young plants are sprayed with the preparation of active compound at the stated application rate.
1 day after the treatment, the plants are dusted with spores of Erysiphe graminis f.sp. hordei.
The plants are placed in a greenhouse at a temperature of about 20° C. and a relative atmospheric humidity of about 80% to promote the development of mildew pustules.
Evaluation is carried out 7 days after the inoculation. 0% means an efficacy which corresponds to that of the control, whereas an efficacy of 100% means that no infection is observed.

Pyricularia = settings: rice

CC(C)(C)C(O)(CCc1ccc(Cl)cc1)Cn1cncn1 (stereo not shown) [(IV-b)]
Efficacy in % (Pyricularia oryzae; application rate 100 g/ha): 0%

O=C(Nc1ccccc1)N(Cc1ccc(Cl)cc1)C1CCCC1 [(V)]
Efficacy in % [1]: 0%

OC(Cc1ccccc1Cl)(Cn1nc[nH]c1=S)C1(Cl)CC1 (stereo not shown) [(IV-c), Prothioconazole]
Efficacy in % (Pyricularia oryzae; application rate 100 g/ha): 29%

CCC1(C(=O)NC(C)c2ccc(Cl)cc2)C(C)C1(Cl)Cl (stereo not shown) [(II), N-[1-(4-chlorophenyl)ethyl]-2,2-dichloro-1-ethyl-3-methylcyclopropane-carboxamide]
Efficacy in % (Pyricularia oryzae; application rate 50 g/ha): 29%
Efficacy in % (Pyricularia; 100 g/10 acres, a: inoculation one week after treatment): 0%

N#Cc1ccccc1NC(=O)c1snc(Cl)c1Cl [(I), 2′-cyano-3,4-dichloroisothiazole-5-carboxanilide]
Efficacy in % (Pyricularia; 10 g/10 acres, b: inoculation two weeks after treatment): 12.6%
Efficacy in % (Pyricularia; 20 g/10 acres, b: inoculation two weeks after treatment): 75%

CC(NC(=O)C(C#N)C(C)(C)C)c1ccc(Cl)cc1Cl (stereo not shown) [(IX), diclocymet]
Efficacy in % (Pyricularia; 10 g/10 acres, a: inoculation one week after treatment): 37.5%
Efficacy in % (Pyricularia; 20 g/10 acres, a: inoculation one week after treatment): 83.2%
Efficacy in % (Pyricularia; 100 g/10 acres, b: inoculation two weeks after treatment): 27.8%
